Read-outs that look alike come from different tables or passages of the source.
How the values were obtained:
Type in all cases: in vivo
Puccinia recondita = assay: Test B: wheat leaf rust, preventive spray on wheat seedlings; conditions: for Test B disease control rating: wheat leaf rust; for Test B disease control rating (100 = 100% disease control, 0 = no disease control): wheat seedlings sprayed to run-off, inoculated the following day, rating relative to controls, unmarked compounds (standard test rate)
Outline: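 Wheat seedlings were sprayed to run-off with compound (3% acetone, 250 ppm Trem 014), then inoculated with P. recondita spores the next day. They were held 24 h saturated at 20 °C, then 6 days at 20 °C. Ratings are 0–100% disease control versus controls.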

Botrytis cinerea = assay: Test E: gray mold, preventive spray on cucumber seedlings; conditions: for Test E disease control rating: gray mold on cucumber; for Test E disease control rating (100 = 100% disease control, 0 = no disease control): cucumber seedlings sprayed to run-off, inoculated the following day, rating relative to controls, unmarked compounds (standard test rate)
Outline: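 Compounds in 3% acetone were suspended with 250 ppm Trem 014 surfactant and sprayed to run-off on cucumber seedlings. B. cinerea spores were inoculated next day, then 48 h saturated humidity at 20° C and 5 days at 20° C. Disease control rated 0–100% versus controls.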

Phytophthora infestans = conditions: for Test D disease control rating: tomato late blight; for Test D disease control rating (100 = 100% disease control, 0 = no disease control): tomato seedlings sprayed to run-off, inoculated the following day, rating relative to controls, unmarked compounds (standard test rate)
[1] = system: Eiysiphe graminis f. sp. tritici; assay: Test A: wheat powdery mildew, preventive spray on wheat seedlings; conditions: for Test A disease control rating: wheat powdery mildew; for Test A disease control rating (100 = 100% disease control, 0 = no disease control): wheat seedlings sprayed to run-off, inoculated the following day, rating relative to controls, unmarked compounds (standard test rate)
Outline: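 Compounds (3% acetone, 250 ppm Trem 014) sprayed to run-off on wheat seedlings, inoculated next day with spore dust. Incubated 7 days at 20° C before disease rating, 0–100% control relative to untreated controls.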

Pyricularia oryzae = conditions: for Test C disease control rating: rice blast; for Test C disease control rating (100 = 100% disease control, 0 = no disease control): rice seedlings sprayed to run-off, inoculated the following day, rating relative to controls, unmarked compounds (standard test rate)
[2] = 100 = 100% disease control, 0 = no control, unmarked entries (standard test concentration)
[3] = 100 = 100% disease control, 0 = no control relative to controls, unmarked entries (standard test concentration)

C[C@H](COc1cc(F)ccc1F)NC(=O)C(C#N)C(C)(C)C (single isomer, unassigned) [28a]
Test B disease control rating (Puccinia recondita; [2]): 28% | Test E disease control rating (Botrytis cinerea; [2]): 0% | Test D disease control rating (Phytophthora infestans; [2]): 68% | Test A disease control rating [1, 3]: 38% | Test C disease control rating (Pyricularia oryzae; [2]): 100%

CC(COc1cc(F)c(F)cc1C#N)NC(=O)C(C#N)C(C)(C)C (mixture of isomers) [compound 207]
Test B disease control rating (Puccinia recondita; [2]): 0% | Test E disease control rating (Botrytis cinerea; [2]): 0% | Test D disease control rating (Phytophthora infestans; [2]): 0% | Test A disease control rating [1, 3]: 0% | Test C disease control rating (Pyricularia oryzae; [2]): 0%

C[C@H](COc1c(F)cc(F)cc1F)NC(=O)C(C#N)C(C)(C)C (single isomer, unassigned) [189a]
Test B disease control rating (Puccinia recondita; [2]): 0% | Test E disease control rating (Botrytis cinerea; [2]): 6% | Test D disease control rating (Phytophthora infestans; [2]): 0% | Test A disease control rating [1, 3]: 0% | Test C disease control rating (Pyricularia oryzae; [2]): 97%

CC(COc1c(Cl)cccc1C#N)NC(=O)C(C#N)C(C)C(C)(C)C (mixture of isomers) [compound 281]
Test B disease control rating (100 = 100% disease control, 0 = no disease control) (Puccinia recondita): 0% | Test E disease control rating (100 = 100% disease control, 0 = no disease control) (Botrytis cinerea): 0% | Test D disease control rating (100 = 100% disease control, 0 = no disease control) (Phytophthora infestans): 0% | Test A disease control rating (100 = 100% disease control, 0 = no disease control) [1]: 56% | Test C disease control rating (100 = 100% disease control, 0 = no disease control) (Pyricularia oryzae): 53%

Cc1cccc(OCC(C)NC(=O)C(C#N)C(C)(C)C)c1 (mixture of isomers) [compound 176]
Test B disease control rating (Puccinia recondita; [2]): 0% | Test E disease control rating (Botrytis cinerea; [2]): 6% | Test D disease control rating (Phytophthora infestans; [2]): 56% | Test A disease control rating [1, 3]: 77% | Test C disease control rating (Pyricularia oryzae; [2]): 94%

CCC1(C(=O)NC(C)COc2c(Cl)cccc2Cl)C(C)C1(Cl)Cl (stereo not shown) [compound 114]
Test B disease control rating (Puccinia recondita; tested at 40 ppm): 0% | Test E disease control rating (Botrytis cinerea; tested at 40 ppm): 0% | Test D disease control rating (Phytophthora infestans; tested at 40 ppm): 0% | Test A disease control rating ([1]; tested at 40 ppm): 83% | Test C disease control rating (Pyricularia oryzae; tested at 40 ppm): 0%

CCCc1ccccc1OCC(C)NC(=O)C(C#N)C(C)(C)C (mixture of isomers) [21a]
Test B disease control rating (Puccinia recondita; [2]): 68% | Test E disease control rating (Botrytis cinerea; [2]): 0% | Test D disease control rating (Phytophthora infestans; [2]): 4% | Test A disease control rating [1, 3]: 38% | Test C disease control rating (Pyricularia oryzae; [2]): 99%

CCC1(C(=O)NC(C)COc2cc(Cl)cc(Cl)c2Cl)C(C)C1(Cl)Cl (stereo not shown) [compound 116]
Test B disease control rating (Puccinia recondita; tested at 40 ppm): 0% | Test E disease control rating (Botrytis cinerea; tested at 40 ppm): 0% | Test D disease control rating (Phytophthora infestans; tested at 40 ppm): 0% | Test A disease control rating ([1]; tested at 40 ppm): 21% | Test C disease control rating (Pyricularia oryzae; tested at 40 ppm): 0%

C[C@H](COc1ccc(F)c(Cl)c1)NC(=O)C(C#N)C(C)(C)C (single isomer, unassigned) [183b]
Test B disease control rating (Puccinia recondita; [2]): 28% | Test E disease control rating (Botrytis cinerea; [2]): 69% | Test D disease control rating (Phytophthora infestans; [2]): 35% | Test A disease control rating [1, 3]: 86% | Test C disease control rating (Pyricularia oryzae; [2]): 94%

C[C@H](COc1c(F)cc(F)cc1F)NC(=O)C(C#N)C(C)(C)C (single isomer, unassigned) [189b]
Test B disease control rating (Puccinia recondita; [2]): 0% | Test E disease control rating (Botrytis cinerea; [2]): 0% | Test D disease control rating (Phytophthora infestans; [2]): 35% | Test A disease control rating [1, 3]: 0% | Test C disease control rating (Pyricularia oryzae; [2]): 100%

C[C@H](COc1ccccc1)NC(=O)C(C#N)C(C)(C)C (single isomer, unassigned) [1e]
Test B disease control rating (Puccinia recondita; [2]): 0% | Test E disease control rating (Botrytis cinerea; [2]): 47% | Test D disease control rating (Phytophthora infestans; [2]): 80% | Test A disease control rating [1, 3]: 92% | Test C disease control rating (Pyricularia oryzae; [2]): 100%

CCC1(C(=O)NC(C)COc2c(Br)cc(F)cc2Br)C(C)C1(Cl)Cl (stereo not shown) [compound 250]
Test B disease control rating (100 = 100% disease control, 0 = no disease control) (Puccinia recondita): 0% | Test E disease control rating (100 = 100% disease control, 0 = no disease control) (Botrytis cinerea): 85% | Test D disease control rating (100 = 100% disease control, 0 = no disease control) (Phytophthora infestans): 0% | Test A disease control rating (100 = 100% disease control, 0 = no disease control) [1]: 0% | Test C disease control rating (100 = 100% disease control, 0 = no disease control) (Pyricularia oryzae): 52%

C[C@H](COc1cccc(F)c1F)NC(=O)C(C#N)C(C)(C)C (single isomer, unassigned) [26a]
Test B disease control rating (Puccinia recondita; [2]): 28% | Test E disease control rating (Botrytis cinerea; [2]): 0% | Test D disease control rating (Phytophthora infestans; [2]): 51% | Test A disease control rating [1, 3]: 38% | Test C disease control rating (Pyricularia oryzae; [2]): 97%

CCC1(C(=O)NC(C)COc2ccccc2OC(F)(F)C(F)F)C(C)C1(Cl)Cl (mixture of isomers) [compound 90]
Test B disease control rating (Puccinia recondita; [2]): 0% | Test E disease control rating (Botrytis cinerea; [2]): 0% | Test D disease control rating (Phytophthora infestans; [2]): 0% | Test A disease control rating [1, 3]: 84% | Test C disease control rating (Pyricularia oryzae; [2]): 32%

C[C@H](COc1ccc(Cl)cc1)NC(=O)C(C#N)C(C)(C)C (single isomer, unassigned) [7d]
Test B disease control rating (Puccinia recondita; [2]): 68% | Test E disease control rating (Botrytis cinerea; [2]): 6% | Test D disease control rating (Phytophthora infestans; [2]): 0% | Test A disease control rating [1, 3]: 62% | Test C disease control rating (Pyricularia oryzae; [2]): 99%

Cc1c(Cl)cc(C#N)n1CCC(C)NC(=O)C(C#N)C(C)C(C)(C)C (mixture of isomers) [compound 72]
Test B disease control rating (Puccinia recondita; [2]): 0% | Test E disease control rating (Botrytis cinerea; [2]): 0% | Test D disease control rating (Phytophthora infestans; [2]): 0% | Test A disease control rating [1, 3]: 0% | Test C disease control rating (Pyricularia oryzae; [2]): 91%

CC(COc1ccc(Br)cc1)NC(=O)C(C#N)C(C)(C)C (single isomer, unassigned) [10b]
Test B disease control rating (Puccinia recondita; [2]): 67% | Test E disease control rating (Botrytis cinerea; [2]): 0% | Test D disease control rating (Phytophthora infestans; [2]): 95% | Test A disease control rating [1, 3]: 62% | Test C disease control rating (Pyricularia oryzae; [2]): 86%

C=CC(C)(C)C(C#N)C(=O)N[C@H](C)COc1cc(F)ccc1Cl (single isomer, unassigned) [192a]
Test B disease control rating (Puccinia recondita; [2]): 0% | Test E disease control rating (Botrytis cinerea; [2]): 85% | Test D disease control rating (Phytophthora infestans; [2]): 0% | Test A disease control rating [1, 3]: 0% | Test C disease control rating (Pyricularia oryzae; [2]): 100%

C[C@H](COc1ccc(F)cc1Br)NC(=O)C(C#N)C(C)(C)C (single isomer, unassigned) [165a]
Test B disease control rating (Puccinia recondita; [2]): 0% | Test E disease control rating (Botrytis cinerea; [2]): 86% | Test D disease control rating (Phytophthora infestans; [2]): 23% | Test A disease control rating [1, 3]: 86% | Test C disease control rating (Pyricularia oryzae; [2]): 74%

CCC1(C(=O)NC(C)COc2c(F)cccc2F)C(C)C1(Cl)Cl (stereo not shown) [105b]
Test B disease control rating (Puccinia recondita; tested at 40 ppm): 0% | Test E disease control rating (Botrytis cinerea; tested at 40 ppm): 0% | Test D disease control rating (Phytophthora infestans; tested at 40 ppm): 0% | Test A disease control rating ([1]; tested at 40 ppm): 21% | Test C disease control rating (Pyricularia oryzae; tested at 40 ppm): 74%

CC(COc1ccccc1CC#N)NC(=O)C(C#N)C(C)C(C)(C)C (mixture of isomers) [compound 61]
Test B disease control rating (Puccinia recondita; tested at 40 ppm): 0% | Test E disease control rating (Botrytis cinerea; tested at 40 ppm): 0% | Test D disease control rating (Phytophthora infestans; tested at 40 ppm): 0% | Test A disease control rating ([1]; tested at 40 ppm): 74% | Test C disease control rating (Pyricularia oryzae; tested at 40 ppm): 73%

CCC1(C(=O)NC(C)COc2cc(OC(F)F)ccc2C#N)C(C)C1(Cl)Cl (mixture of isomers) [compound 256]
Test B disease control rating (100 = 100% disease control, 0 = no disease control) (Puccinia recondita): 0% | Test E disease control rating (100 = 100% disease control, 0 = no disease control) (Botrytis cinerea): 0% | Test D disease control rating (100 = 100% disease control, 0 = no disease control) (Phytophthora infestans): 0% | Test A disease control rating (100 = 100% disease control, 0 = no disease control) [1]: 56% | Test C disease control rating (100 = 100% disease control, 0 = no disease control) (Pyricularia oryzae): 0%

C[C@H](COc1ccc(Br)cc1)NC(=O)C(C#N)C(C)(C)C (single isomer, unassigned) [10c]
Test B disease control rating (Puccinia recondita; [2]): 86% | Test E disease control rating (Botrytis cinerea; [2]): 0% | Test D disease control rating (Phytophthora infestans; [2]): 35% | Test A disease control rating [1, 3]: 0% | Test C disease control rating (Pyricularia oryzae; [2]): 53%

From patent publication US6642392B1 (priority 1997, dated 2003)
